ChEMBL document CHEMBL1201862, “PubChem BioAssay data set” (2004)
Active and inactive are the calls of the source.

Experiments:
[1] = biological target: Low molecular weight phosphotyrosine protein phosphatase (Homo sapiens, UniProt P24666); format: functional; details: read-out: IC50_Mean;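 note: Dose-response confirmation assay measuring inhibition of LMPTP enzyme activity by fluorescence intensity read-out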
[2] = biological target: T1, Estrogen receptor beta (Homo sapiens, UniProt Q92731);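 note: recombinant ER-beta bound to coactivator SRC1 peptide in presence of estradiol agonist; inhibitors block coactivator peptide binding and lower the FRET signal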
[3] = biological target: T2, Estrogen receptor (Homo sapiens, UniProt P03372);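 note: potency for inhibiting coactivator peptide recruitment to the receptor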
T2 sequence (P03372 whole entry): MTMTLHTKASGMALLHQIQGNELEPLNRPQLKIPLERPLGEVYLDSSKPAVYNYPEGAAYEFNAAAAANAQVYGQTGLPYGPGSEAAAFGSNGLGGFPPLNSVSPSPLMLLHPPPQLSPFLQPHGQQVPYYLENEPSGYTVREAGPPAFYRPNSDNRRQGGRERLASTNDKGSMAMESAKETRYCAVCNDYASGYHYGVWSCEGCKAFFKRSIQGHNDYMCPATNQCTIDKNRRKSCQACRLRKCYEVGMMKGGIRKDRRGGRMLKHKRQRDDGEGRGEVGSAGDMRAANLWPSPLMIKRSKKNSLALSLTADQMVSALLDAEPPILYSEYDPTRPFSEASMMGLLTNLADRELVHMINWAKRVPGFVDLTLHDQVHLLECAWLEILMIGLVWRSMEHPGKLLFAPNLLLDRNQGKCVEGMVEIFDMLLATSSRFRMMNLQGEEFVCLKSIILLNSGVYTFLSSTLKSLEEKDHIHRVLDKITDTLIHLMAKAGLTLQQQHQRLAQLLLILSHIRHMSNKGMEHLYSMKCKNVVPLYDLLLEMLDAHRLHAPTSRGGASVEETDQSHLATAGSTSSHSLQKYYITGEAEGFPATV

[4] = biological target: T3, Histone-lysine N-methyltransferase NSD2 (Homo sapiens, UniProt O96028); format: biochemical
T3 sequence (O96028 whole entry): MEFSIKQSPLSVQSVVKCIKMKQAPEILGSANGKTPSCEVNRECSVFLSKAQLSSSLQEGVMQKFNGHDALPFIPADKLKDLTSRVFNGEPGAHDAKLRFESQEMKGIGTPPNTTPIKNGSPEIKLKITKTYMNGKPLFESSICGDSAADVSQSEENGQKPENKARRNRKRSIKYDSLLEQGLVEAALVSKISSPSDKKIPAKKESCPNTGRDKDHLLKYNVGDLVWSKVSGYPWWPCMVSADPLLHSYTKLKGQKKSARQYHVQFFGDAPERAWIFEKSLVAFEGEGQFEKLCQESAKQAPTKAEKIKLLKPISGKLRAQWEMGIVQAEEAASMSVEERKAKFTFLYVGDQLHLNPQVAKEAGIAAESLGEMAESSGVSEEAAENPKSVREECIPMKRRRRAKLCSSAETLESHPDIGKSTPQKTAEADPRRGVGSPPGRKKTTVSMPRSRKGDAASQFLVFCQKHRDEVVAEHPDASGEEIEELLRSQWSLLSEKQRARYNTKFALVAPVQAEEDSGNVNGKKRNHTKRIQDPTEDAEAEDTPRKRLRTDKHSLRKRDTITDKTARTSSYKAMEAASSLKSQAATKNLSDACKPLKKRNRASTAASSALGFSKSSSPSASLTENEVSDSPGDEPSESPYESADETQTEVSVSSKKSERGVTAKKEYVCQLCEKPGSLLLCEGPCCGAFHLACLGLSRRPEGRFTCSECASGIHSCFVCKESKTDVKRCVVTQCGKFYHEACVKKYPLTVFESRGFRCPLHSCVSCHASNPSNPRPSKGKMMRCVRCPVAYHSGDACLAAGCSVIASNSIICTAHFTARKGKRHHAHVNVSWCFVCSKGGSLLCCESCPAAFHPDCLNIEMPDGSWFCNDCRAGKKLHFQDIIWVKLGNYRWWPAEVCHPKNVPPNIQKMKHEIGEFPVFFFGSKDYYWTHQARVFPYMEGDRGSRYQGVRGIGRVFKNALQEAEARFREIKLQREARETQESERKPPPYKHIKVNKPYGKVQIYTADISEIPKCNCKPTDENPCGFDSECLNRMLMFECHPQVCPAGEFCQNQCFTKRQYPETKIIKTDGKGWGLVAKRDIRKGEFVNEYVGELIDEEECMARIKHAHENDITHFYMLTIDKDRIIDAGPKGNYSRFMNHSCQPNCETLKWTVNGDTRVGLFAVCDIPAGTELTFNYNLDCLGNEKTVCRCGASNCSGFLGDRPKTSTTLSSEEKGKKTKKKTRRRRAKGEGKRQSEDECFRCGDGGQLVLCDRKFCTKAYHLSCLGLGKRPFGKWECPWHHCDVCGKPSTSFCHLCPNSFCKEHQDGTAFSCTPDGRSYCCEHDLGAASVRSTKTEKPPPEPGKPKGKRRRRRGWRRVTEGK

[5] = biological target: T1, Estrogen receptor beta; experiment: blockers of SRC-3 recruitment to ERβ – biochemical, ELISA, streptavidin-HRP readout, orthogonal assay, confirmation (AID 1060)
[6] = biological target: Galanin receptor type 3 (Homo sapiens, UniProt O60755); experiment: Fluorescence-based cell-based primary high throughput dose response assay to identify antagonists of the Galanin Receptor 3 (GalR3).; format: functional
[7] = cells; format: functional, cell-based; details: HEK-CNG
[8] = biological target: T4, Coagulation factor XII (Homo sapiens, UniProt P00748); format: functional;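 note: activated factor XIIa alpha cleaving a fluorogenic AMC peptide substrate; inhibitor potency from loss of enzyme activity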
T4 sequence (P00748 whole entry): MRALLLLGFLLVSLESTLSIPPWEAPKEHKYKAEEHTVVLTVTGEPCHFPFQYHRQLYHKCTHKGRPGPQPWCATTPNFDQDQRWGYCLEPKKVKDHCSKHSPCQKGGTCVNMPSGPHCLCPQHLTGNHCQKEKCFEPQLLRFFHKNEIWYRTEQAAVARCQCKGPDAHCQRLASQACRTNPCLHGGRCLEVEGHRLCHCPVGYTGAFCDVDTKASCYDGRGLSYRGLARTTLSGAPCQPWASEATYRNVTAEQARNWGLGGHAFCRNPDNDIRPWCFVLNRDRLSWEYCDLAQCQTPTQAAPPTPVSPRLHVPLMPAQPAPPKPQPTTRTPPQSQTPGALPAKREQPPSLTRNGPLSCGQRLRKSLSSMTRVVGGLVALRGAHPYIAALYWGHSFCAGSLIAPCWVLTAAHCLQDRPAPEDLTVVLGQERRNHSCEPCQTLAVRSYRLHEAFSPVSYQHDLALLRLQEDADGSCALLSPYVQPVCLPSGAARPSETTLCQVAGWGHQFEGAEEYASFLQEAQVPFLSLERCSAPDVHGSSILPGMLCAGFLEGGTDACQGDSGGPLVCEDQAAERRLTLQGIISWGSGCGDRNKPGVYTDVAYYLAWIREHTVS

[9] = biological target: 5-hydroxytryptamine receptor 2A (Mus musculus, UniProt P35363); format: functional, cell-based;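 note: CHO-K1 cells with tagged receptor and beta-arrestin; agonist potency measured as compound-induced activation of the receptor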
[10] = biological target: Mu-type opioid receptor (Homo sapiens, UniProt P35372); format: functional, cell-based;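 note: U2OS cells with beta-arrestin recruitment to OPRM1 by beta-gal complementation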
[11] = test system: HEK293; experiment: NOD2 signaling inhibitors in MDP-stimulated cells, cell-based, uHTS, luminescence (AID 2001); format: functional; details: Homo sapiens
[12] = test system: HEK293; experiment: cells; format: functional, cell-based; details: Homo sapiens
[13] = biological target: T5, Beta-2 adrenergic receptor (Homo sapiens, UniProt P07550); experiment: ADRB2 activation measured by internalization – cell-based, FAP fluorogen, flow cytometry, cherry pick 1, dose response (AID 588763); format: functional
[14] = test system: HEK293; experiment: cells; format: functional, cell-based; details: Homo sapiens; remark: listed apart in the source
[15] = biological target: T5, Beta-2 adrenergic receptor; experiment: Dose response for HTS for Beta-2AR agonists via FAP method from Powderset3.; format: functional
[16] = test system: HEK293; experiment: inhibition of NOD1-driven NF-kB reporter – cell-based, luminescence, uHTS, primary screen (AID 1578); format: functional; details: Homo sapiens
[17] = NIH-3T3 fibroblast cytotoxicity, dose response, cytotoxicity control, cell-based, fluorescence, Alamar Blue, secondary assay (AID 2327); format: functional;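 note: NIH-3T3 mouse fibroblasts cultured with fluconazole at 8 µg/mL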
[18] = fluconazole-exposed Candida albicans growth modulators – fluorescence, retest, confirmation (AID 2467); format: functional, cell-based
[19] = test system: Vero; experiment: cells; format: functional; details: Chlorocebus sabaeus
[20] = test system: Vero; experiment: cells; format: functional, cell-based; details: Chlorocebus sabaeus
[21] = biological target: SWI/SNF-related matrix-associated actin-dependent regulator of chromatin subfamily A member 2 (Homo sapiens, UniProt P51531); experiment: Luminescence-based cell-based high throughput dose response assay to identify activators of the function of SWI/SNF related, matrix associated, actin dependent regulator of chromatin, subfamily a, member 2 (SMARCA2, BRM).; format: functional
[22] = Counterscreen for activators of the function of SWI/SNF related, matrix associated, actin dependent regulator of chromatin, subfamily a, member 2 (SMARCA2, BRM): Luminescence-based cell-based high throughput dose response assay to identify non-selective compounds using the VP16 reporter assay.; format: functional
[23] = cells; format: functional, cell-based
[24] = biological target: Nuclear receptor subfamily 0 group B member 1 (Homo sapiens, UniProt P51843); format: functional, cell-based;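 note: HEK293T cells transfected with SF-1 and DAX-1 plus StAR promoter luciferase reporter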
[25] = biological target: T6, Sentrin-specific protease 1 (Homo sapiens, UniProt Q9P0U3); experiment: SENP1 catalytic domain blockers, concentration series – biochemical, kinetic FRET, dose response (AID 651697); format: functional; details: read-out: IC50_Mean
[26] = biological target: T6, Sentrin-specific protease 1; experiment: Dose response confirmation of small molecule inhibitors of the catalytic domain of the SUMO protease, SENP1 in a FRET assay.; format: functional; details: read-out: IC50_Mean
[27] = biological target: T7, Methionyl-tRNA synthetase, putative (Trypanosoma brucei brucei, UniProt Q38C91); format: functional, Trypanosoma brucei brucei strain 927/4 GUTat10.1
[28] = biological target: T7, Methionyl-tRNA synthetase, putative; format: functional, Trypanosoma brucei brucei strain 927/4 GUTat10.1; remark: listed apart in the source
[29] = Counterscreen for inhibitors of Trypanosoma brucei methionyl tRNA synthetase (MetRS): Luminescence-based cell-based high throughput dose response assay to identify compounds that are cytotoxic to Jurkat human T lymphocyte cells.; format: functional
[30] = test system: Cryptococcus neoformans; experiment: PubChem AID 686997; format: functional, organism-based
[31] = viability loss in CEM21 cells – cell-based, CellTiter-Glo luminescence, cherry-picked, cytotoxicity control for viral fusion inhibitor project, dose response (AID 652042); format: functional;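 note: potency for signal decrease meaning cytotoxicity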
[32] = HIV-1 AD8 envelope cell-cell fusion blockers – cherry-pick, dose response (AID 652062); format: functional, cell-based;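 note: luciferase signal from cell-cell fusion driven by HIV-1 clade B AD8 Env; potency is for inhibitors of fusion seen as a drop in luminescence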
[33] = blockers of HIV-1 envelope-mediated cell-cell fusion – cherry-pick, dose response (AID 652057); format: functional, cell-based
[34] = test system: Vero; experiment: viability loss in Vero cells – cell-based, plate reader, cherry-pick samples, cytotoxicity control, dose response (AID 687020); format: functional; details: Chlorocebus sabaeus
[35] = cytotoxicity in HEK293 background cells – cell-based, dry powder, set 2, counter-screen for EBV LMP1 inhibitor project, dose response (AID 624374); format: functional
[36] = inhibition of ARNT PAS-B/TACC3 complex formation – biochemical, AlphaScreen, cherry-picked samples, confirmation (AID 651703); format: functional, Homo sapiens;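 note: His-tagged ARNT PAS-B domain paired with GST-TACC3 E629A dimer coactivator fragment; potency of inhibitors that break up the complex and lower AlphaScreen signal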
[37] = luciferase reporter signal suppression in cells – H4 neuroglioma cells, luminescence, dose response (AID 1990); format: functional, cell-based
[38] = Luminescence Cell-Based Dose Response HTS to Identify Inhibitors of 5'UTR Stem-Loop Driven Prion Protein mRNA Translation in H4 Neuroglioblastoma Cells. [Related pubchem assays: 1827 (Project Summary), 1813 (Primary HTS)]; format: functional
[39] = bead-based luminescence quenchers, dual-tagged ARNT – biochemical, AlphaScreen, cherry-pick, artefact control for ARNT-TACC3 interaction inhibitor project, dose response (AID 651705); format: functional;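 note: AlphaScreen bead proximity signal that flags compounds interfering with the detection technology; potency reflects signal decrease which marks the compound as an assay artifact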
[40] = alpha-synuclein stem-loop luciferase translation blockers – H4 neuroglioma cells, luminescence, confirmation (AID 1988); format: functional, cell-based

T7 sequence (Q38C91 whole entry): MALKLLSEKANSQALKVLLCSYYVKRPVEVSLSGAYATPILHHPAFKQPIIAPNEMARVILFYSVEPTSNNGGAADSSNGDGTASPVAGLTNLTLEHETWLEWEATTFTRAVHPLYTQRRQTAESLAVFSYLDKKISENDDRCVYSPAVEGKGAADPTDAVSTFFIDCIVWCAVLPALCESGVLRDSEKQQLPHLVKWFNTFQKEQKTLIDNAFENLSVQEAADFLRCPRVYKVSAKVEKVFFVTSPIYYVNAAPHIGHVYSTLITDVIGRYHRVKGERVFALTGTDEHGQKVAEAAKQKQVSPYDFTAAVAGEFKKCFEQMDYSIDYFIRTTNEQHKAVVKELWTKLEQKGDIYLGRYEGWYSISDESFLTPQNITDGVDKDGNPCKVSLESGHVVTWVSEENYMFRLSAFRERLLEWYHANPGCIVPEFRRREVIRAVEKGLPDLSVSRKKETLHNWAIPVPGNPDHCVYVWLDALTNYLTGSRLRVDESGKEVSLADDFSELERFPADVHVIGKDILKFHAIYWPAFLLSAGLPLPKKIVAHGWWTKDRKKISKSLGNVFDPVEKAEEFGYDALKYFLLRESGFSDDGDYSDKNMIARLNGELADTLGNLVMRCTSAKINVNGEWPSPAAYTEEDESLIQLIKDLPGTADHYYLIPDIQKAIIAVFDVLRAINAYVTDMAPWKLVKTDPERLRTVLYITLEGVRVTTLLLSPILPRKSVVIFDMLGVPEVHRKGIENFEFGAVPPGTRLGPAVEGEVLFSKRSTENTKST
T5 sequence (P07550 whole entry): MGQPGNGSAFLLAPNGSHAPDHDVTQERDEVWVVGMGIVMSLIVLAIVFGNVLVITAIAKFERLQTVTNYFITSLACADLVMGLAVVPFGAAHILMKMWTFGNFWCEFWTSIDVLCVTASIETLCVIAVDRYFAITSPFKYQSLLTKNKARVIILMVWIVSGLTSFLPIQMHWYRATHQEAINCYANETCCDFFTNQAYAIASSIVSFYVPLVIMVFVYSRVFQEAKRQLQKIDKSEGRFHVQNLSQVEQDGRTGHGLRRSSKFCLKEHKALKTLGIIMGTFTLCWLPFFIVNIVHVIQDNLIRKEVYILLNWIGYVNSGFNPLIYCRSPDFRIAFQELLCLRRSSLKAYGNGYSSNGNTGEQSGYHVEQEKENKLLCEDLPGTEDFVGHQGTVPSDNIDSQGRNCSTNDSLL
T6 sequence (Q9P0U3 whole entry, the tested form may be a part): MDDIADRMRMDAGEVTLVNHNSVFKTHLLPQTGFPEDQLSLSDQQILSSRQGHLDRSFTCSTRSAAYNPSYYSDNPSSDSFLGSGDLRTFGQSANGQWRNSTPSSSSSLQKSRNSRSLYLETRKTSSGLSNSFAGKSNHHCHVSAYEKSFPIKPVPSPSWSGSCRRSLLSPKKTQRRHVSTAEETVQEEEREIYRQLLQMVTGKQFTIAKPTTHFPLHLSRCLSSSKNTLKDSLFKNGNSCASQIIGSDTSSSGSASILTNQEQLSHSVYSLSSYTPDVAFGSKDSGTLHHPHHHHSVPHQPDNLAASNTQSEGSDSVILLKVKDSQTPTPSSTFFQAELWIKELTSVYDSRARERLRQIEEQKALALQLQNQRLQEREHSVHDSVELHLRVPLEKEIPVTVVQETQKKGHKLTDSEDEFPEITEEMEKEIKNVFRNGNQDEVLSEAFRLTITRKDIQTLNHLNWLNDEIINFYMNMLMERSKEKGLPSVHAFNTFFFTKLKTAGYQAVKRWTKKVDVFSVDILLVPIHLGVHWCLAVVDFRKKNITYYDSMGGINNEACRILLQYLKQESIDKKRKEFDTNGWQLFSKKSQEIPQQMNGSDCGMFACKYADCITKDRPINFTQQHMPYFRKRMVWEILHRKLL
T1 sequence (Q92731 whole entry): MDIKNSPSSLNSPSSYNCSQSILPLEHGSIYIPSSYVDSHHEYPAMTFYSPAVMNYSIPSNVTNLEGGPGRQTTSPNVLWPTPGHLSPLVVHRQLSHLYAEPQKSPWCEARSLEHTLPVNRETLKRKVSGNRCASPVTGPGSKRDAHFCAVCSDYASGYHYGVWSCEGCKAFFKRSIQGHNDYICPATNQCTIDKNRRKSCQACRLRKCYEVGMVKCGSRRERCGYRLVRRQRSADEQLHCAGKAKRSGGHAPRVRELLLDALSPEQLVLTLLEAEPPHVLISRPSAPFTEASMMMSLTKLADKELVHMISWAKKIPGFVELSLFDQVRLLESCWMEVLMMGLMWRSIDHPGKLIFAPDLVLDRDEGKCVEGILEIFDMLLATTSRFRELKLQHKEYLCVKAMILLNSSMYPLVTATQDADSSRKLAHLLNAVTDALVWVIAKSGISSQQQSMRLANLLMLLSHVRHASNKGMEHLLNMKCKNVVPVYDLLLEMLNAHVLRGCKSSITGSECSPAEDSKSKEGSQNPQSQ
Chain of Low molecular weight phosphotyrosine protein phosphatase (P24666 whole entry): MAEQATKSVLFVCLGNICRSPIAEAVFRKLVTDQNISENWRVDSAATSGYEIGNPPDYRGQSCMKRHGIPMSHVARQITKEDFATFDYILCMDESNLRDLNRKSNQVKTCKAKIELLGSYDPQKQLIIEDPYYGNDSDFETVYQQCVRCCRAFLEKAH
Chain of Nuclear receptor subfamily 0 group B member 1 (P51843 whole entry, the tested form may be a part): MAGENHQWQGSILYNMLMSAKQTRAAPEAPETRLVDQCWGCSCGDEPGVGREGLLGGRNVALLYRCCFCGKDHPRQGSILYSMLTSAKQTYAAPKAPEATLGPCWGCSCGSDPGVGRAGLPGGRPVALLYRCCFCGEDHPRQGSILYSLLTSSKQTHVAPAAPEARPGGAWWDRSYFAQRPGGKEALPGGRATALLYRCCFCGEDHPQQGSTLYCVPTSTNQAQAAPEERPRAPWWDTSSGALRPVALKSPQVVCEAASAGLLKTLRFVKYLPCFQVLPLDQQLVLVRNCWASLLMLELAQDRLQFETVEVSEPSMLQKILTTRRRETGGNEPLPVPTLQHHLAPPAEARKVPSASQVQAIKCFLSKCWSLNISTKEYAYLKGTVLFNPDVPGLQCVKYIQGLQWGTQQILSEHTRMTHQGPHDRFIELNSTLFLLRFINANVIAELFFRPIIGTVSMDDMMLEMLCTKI
Chain of 5-hydroxytryptamine receptor 2A (P35363 whole entry): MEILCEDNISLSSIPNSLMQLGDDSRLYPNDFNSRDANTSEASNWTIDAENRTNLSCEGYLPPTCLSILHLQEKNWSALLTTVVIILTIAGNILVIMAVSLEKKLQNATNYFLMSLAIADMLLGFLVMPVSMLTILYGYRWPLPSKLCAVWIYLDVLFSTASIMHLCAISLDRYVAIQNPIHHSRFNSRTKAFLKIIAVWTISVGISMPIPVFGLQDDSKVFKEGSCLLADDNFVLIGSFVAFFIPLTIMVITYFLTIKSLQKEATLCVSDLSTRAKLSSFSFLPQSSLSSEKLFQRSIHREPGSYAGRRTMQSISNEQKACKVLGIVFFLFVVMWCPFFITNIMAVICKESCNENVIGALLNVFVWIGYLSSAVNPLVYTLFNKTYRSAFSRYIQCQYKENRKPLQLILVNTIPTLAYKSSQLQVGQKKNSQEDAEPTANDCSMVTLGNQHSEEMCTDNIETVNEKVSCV
Chain of Galanin receptor type 3 (O60755 whole entry): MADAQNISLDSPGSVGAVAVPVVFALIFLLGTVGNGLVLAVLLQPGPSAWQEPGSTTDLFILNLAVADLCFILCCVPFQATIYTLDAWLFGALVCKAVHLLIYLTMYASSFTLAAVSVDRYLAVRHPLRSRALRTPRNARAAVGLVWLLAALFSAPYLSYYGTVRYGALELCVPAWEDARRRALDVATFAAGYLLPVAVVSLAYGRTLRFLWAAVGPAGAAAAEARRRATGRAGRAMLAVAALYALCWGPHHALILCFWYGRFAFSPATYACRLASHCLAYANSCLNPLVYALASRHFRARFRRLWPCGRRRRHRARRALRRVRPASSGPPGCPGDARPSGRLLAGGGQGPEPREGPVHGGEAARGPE
Chain of Mu-type opioid receptor (P35372 whole entry): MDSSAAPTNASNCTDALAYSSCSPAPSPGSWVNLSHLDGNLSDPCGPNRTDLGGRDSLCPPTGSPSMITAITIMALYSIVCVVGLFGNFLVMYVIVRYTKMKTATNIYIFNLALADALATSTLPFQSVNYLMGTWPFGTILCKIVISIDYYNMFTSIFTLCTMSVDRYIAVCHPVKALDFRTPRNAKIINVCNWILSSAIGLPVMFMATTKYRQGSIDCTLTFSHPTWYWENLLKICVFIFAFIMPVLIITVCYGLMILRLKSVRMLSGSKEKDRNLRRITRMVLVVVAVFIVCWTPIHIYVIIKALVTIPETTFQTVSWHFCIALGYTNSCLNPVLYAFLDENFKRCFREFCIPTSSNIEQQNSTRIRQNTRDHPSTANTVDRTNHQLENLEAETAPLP

CCN(c1ccccc1)S(=O)(=O)c1cc(C(=O)O)ccc1C
IC50 [1]: 21 µM (inactive)
IC50 [2]: 6.12 µM (active)
IC50 [3]: 13.1 µM (active)
AC50 [4]: 9.26 µM (active)
IC50 [5]: 1.83 µM (not active)

Cc1cc(OCC(=O)Nc2ccncc2)c(C)cc1Br
IC50 [6]: 1.4 µM (active)
EC50 [7]: > 29.9 µM (inactive)

Cc1[nH]c2ccccc2c1NC(=O)CN1CCN(C(=O)c2ccco2)CC1
IC50 [8]: > 50 µM (inactive)
EC50 [9]: 4.1 µM (active)
EC50 [10]: 92.4 µM (inactive)

Cn1c(N2CCN(c3ccccn3)CC2)nc2c1c(=O)n(Cc1ccc(Cl)cc1)c(=O)n2C
IC50 [11]: 6 µM (active)
IC50 [12]: 10.9 µM (active)
EC50 [13]: 0.081 µM (active)
IC50 [14]: 7.19 µM (active)
EC50 [15]: 0.0074 µM (active)
EC50 [16]: 6.92 µM (active)

O=C(Nc1ccccc1Cl)c1ccc([N+](=O)[O-])o1
EC50 [17]: > 160 µM (inactive)
EC50 [18]: 1.64 µM (active)
CC50 [19]: 12.2 µM (active)
IC50 [20]: > 25 µM (active)
EC50 [21]: > 91.2 µM (inactive)
EC50 [22]: > 91.2 µM (inactive)

O=[N+]([O-])c1ccc(COc2ccc(CN3CCOCC3)cc2)cc1
IC50 [23]: > 67.5 µM (inactive)
IC50 [24]: > 67.5 µM (inactive)

CC/N=c1\scc(-c2cccs2)n1/N=C/c1cc(OC)ccc1O
IC50 [25]: 18.6 µM (active)
IC50 [26]: 15.8 µM (active)

Cc1ccccc1-c1c[nH]c(C(O)c2cc(Cl)cc(Cl)c2)n1 (stereo not given)
IC50 [27]: 5.56 µM (active)
IC50 [28]: 8.47 µM (active)
IC50 [29]: 83.3 µM (inactive)

COC(=O)C1=C(C)N(Cc2ccc(Br)cc2)C(=S)NC1c1cccc(Cl)c1 (stereo not given)
AC50 [30]: 26.4 µM (active)

C[C@H](CO)N1C[C@H](C)[C@H](CN(C)S(=O)(=O)c2ccccc2)Oc2cc(Br)ccc2S1(=O)=O
AC50 [31]: 53.4 µM (active)
AC50 [32]: 38.6 µM (active)
AC50 [33]: 4.68 µM (active)

COc1ccccc1-c1noc2c1C(=O)N(Cc1cn(Cc3ccccc3)nn1)CC2
AC50 [34]: 32.2 µM (active)

O=C(Cc1ccccn1)NCC[C@@H]1CC[C@@H](NC(=O)Nc2ccc(Cl)cc2)[C@@H](CO)O1
AbsAC35 [35]: 83.87 µM

O=c1oc2ccccc2c(O)c1/C=N/Cc1ccccn1
AC50 [36]: 109 µM (active)

C(=N\Nc1ccc2nncn2n1)/c1ccccn1
EC50 [37]: > 120 µM (not active)
EC50 [38]: 11.8 µM (active)
AC50 [39]: 110 µM (active)
EC50 [40]: > 120 µM (not active)
